Common to all, as to assay: biochemical
Common to all, as to type: biochemical

For assay [1], the target named is 363 human kinases (including Aurora A/B/C) (Homo sapiens, UniProt Q16513). The conditions noted are these: PKN2/PRK2; for remaining activity at 0.5 µM / remaining activity at 0.1 µM: read-out: % Enzyme Activity (relative to DMSO controls); for remaining activity at 0.1 µM: 100 nM.
From the text: (§1) However, the Aurora A/B selectivity ratios derived from our in vitro and in vivo data can be compared to prioritize inhibitors.
Assay [2] has as its target 363 human kinases (including Aurora A/B/C) (Homo sapiens, UniProt O95747). The conditions noted are these: OSR1/OXSR1; for remaining activity at 0.1 µM: 100 nM.
From the text: as §1
In assay [3] the target is T1, 363 human kinases (including Aurora A/B/C) (Homo sapiens, UniProt Q8IYT8).
T1 sequence (Q8IYT8 1-1036): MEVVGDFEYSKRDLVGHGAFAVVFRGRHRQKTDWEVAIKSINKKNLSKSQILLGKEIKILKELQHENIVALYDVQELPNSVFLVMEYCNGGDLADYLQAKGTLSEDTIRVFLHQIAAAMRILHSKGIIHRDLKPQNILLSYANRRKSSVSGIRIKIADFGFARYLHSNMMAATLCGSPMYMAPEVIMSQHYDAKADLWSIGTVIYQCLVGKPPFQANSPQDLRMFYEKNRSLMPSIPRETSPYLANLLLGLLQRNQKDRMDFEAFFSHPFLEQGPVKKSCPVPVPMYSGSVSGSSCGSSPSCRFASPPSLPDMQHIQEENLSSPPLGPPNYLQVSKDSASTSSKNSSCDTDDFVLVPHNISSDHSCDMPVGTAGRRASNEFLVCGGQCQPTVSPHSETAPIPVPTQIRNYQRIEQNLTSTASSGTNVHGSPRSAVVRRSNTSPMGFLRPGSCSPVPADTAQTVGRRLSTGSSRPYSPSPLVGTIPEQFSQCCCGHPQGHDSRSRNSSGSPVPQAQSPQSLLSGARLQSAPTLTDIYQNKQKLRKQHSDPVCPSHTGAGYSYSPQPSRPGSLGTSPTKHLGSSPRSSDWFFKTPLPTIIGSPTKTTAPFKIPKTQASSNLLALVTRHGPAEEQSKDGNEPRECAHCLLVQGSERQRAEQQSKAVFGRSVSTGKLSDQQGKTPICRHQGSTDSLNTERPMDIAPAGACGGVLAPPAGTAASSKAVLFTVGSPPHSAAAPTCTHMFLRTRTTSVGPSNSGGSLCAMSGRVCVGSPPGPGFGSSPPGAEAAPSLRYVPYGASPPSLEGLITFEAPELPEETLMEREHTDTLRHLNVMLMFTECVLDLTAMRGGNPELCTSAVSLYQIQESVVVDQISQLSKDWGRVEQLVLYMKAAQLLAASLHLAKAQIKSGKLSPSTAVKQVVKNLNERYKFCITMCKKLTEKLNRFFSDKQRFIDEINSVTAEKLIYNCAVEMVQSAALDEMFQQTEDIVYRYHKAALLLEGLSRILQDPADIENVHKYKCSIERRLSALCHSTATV
The note with it: ULK2; for remaining activity at 0.5 µM / remaining activity at 0.1 µM: read-out: % Enzyme Activity (relative to DMSO controls); for remaining activity at 0.1 µM: 100 nM.
From the text: as §1

Assay [4] has as its target 363 human kinases (including Aurora A/B/C) (Homo sapiens, UniProt Q13882). The conditions noted are these: BRK, [ATP] 100 µM; for remaining activity at 0.5 µM / remaining activity at 0.1 µM: read-out: % Enzyme Activity (relative to DMSO controls); for remaining activity at 0.1 µM: 100 nM.
From the text: as §1
Assay [5] has as its target T2, 363 human kinases (including Aurora A/B/C) (Homo sapiens, UniProt Q05513).
T2 sequence (Q05513 1-592): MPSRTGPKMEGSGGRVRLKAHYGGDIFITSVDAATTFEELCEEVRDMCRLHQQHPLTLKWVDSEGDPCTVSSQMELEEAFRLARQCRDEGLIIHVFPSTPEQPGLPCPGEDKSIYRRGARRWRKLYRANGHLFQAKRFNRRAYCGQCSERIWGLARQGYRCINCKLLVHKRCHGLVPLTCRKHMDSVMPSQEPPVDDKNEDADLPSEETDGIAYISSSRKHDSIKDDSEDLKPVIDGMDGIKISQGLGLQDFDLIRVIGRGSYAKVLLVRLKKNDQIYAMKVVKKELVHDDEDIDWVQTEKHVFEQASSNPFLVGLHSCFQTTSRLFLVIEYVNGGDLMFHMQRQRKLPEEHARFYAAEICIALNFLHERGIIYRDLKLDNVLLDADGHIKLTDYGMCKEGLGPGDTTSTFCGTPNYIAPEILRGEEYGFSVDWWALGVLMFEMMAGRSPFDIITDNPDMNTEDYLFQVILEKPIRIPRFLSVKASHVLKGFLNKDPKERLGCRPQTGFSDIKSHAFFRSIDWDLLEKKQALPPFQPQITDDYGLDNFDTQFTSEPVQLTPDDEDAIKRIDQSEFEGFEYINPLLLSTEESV
The conditions noted are these: PKCzeta; for remaining activity at 0.5 µM / remaining activity at 0.1 µM: read-out: % Enzyme Activity (relative to DMSO controls); for remaining activity at 0.1 µM: 100 nM.
From the text: as §1

In assay [6] the target is T3, 363 human kinases (including Aurora A/B/C) (Homo sapiens, UniProt O94806).
T3 sequence (O94806 1-890): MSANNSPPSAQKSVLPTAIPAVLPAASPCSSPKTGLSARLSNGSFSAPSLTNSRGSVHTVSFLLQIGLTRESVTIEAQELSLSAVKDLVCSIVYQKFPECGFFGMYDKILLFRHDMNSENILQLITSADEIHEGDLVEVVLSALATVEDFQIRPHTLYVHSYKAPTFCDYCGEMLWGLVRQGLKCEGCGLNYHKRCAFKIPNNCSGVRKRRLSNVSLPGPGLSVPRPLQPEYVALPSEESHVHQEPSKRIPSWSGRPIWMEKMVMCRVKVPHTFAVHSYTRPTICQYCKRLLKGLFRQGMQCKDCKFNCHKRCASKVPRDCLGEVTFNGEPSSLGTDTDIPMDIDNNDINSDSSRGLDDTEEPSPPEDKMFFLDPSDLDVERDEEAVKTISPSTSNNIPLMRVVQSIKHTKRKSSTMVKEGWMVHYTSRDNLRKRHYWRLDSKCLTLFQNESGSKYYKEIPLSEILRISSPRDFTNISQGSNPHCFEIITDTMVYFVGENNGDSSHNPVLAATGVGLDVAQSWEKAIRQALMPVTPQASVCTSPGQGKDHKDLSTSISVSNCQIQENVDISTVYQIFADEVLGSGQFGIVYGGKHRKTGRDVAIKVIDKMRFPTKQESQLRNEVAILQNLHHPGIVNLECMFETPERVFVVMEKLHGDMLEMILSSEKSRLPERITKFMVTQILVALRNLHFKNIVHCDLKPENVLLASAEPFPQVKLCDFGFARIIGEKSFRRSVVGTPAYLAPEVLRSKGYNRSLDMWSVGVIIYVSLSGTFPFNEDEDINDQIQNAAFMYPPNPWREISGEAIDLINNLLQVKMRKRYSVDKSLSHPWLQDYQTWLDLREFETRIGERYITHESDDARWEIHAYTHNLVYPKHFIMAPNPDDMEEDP
The conditions noted are these: PKCnu/PRKD3; for remaining activity at 0.5 µM / remaining activity at 0.1 µM: read-out: % Enzyme Activity (relative to DMSO controls); for remaining activity at 0.1 µM: 100 nM.
From the text: as §1

Assay [7] has as its target 363 human kinases (including Aurora A/B/C) (Homo sapiens, UniProt P78368). The note with it: CK1g2, [ATP] 100 µM; for remaining activity at 0.5 µM / remaining activity at 0.1 µM: read-out: % Enzyme Activity (relative to DMSO controls); for remaining activity at 0.1 µM: 100 nM.
From the text: as §1
Where [8] appears, read: read-out: % Enzyme Activity (relative to DMSO controls).

Sequence of 363 human kinases (including Aurora A/B/C) (Homo sapiens, UniProt Q16513) (Q16513 whole entry): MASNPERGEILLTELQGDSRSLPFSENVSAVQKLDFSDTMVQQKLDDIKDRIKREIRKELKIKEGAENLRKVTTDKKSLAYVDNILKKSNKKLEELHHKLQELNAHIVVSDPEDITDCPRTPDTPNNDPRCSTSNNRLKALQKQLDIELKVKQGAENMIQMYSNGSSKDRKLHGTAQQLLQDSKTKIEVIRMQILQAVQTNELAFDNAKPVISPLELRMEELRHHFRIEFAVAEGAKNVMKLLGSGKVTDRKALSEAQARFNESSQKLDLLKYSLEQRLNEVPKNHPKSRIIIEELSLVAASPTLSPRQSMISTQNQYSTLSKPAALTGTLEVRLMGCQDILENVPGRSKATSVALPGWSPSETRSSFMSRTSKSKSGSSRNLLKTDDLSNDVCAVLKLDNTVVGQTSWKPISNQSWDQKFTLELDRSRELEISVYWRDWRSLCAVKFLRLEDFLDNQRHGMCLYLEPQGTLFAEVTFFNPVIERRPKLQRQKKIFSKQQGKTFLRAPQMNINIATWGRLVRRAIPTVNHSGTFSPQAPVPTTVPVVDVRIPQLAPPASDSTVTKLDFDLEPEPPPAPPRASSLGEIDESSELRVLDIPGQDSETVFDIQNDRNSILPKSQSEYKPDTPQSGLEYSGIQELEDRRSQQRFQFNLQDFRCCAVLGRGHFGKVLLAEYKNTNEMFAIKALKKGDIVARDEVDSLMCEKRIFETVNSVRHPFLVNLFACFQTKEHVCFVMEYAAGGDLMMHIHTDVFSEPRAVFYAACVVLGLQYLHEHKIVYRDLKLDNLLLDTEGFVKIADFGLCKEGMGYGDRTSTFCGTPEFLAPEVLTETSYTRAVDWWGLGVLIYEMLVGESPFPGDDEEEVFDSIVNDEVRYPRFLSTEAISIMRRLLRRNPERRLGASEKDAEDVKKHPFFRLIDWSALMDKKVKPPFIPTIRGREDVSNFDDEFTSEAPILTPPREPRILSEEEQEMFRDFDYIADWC
Sequence of 363 human kinases (including Aurora A/B/C) (Homo sapiens, UniProt P78368) (P78368 whole entry): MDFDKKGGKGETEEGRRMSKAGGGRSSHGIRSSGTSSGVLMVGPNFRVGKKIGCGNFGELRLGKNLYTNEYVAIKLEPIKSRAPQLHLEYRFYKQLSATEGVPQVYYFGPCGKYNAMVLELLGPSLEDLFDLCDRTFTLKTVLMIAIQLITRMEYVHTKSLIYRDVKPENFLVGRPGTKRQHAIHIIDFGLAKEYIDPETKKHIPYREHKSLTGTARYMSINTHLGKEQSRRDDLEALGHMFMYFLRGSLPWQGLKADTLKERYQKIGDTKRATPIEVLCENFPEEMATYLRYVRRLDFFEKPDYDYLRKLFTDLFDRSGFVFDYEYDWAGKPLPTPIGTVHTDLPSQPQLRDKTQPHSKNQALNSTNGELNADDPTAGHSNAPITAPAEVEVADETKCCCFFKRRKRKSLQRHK
Sequence of 363 human kinases (including Aurora A/B/C) (Homo sapiens, UniProt Q13882) (Q13882 whole entry): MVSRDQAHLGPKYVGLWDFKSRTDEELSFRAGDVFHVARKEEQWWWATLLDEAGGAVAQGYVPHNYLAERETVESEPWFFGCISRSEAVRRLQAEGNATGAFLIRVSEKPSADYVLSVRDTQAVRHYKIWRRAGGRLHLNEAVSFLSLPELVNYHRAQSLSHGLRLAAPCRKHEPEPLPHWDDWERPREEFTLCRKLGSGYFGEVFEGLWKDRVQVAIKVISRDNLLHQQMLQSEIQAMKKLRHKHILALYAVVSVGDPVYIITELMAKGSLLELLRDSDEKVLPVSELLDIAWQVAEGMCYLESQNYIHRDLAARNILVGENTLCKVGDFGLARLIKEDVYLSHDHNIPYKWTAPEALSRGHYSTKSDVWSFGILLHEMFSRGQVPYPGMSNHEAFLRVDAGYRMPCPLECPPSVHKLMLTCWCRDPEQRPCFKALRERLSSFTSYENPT
Sequence of 363 human kinases (including Aurora A/B/C) (Homo sapiens, UniProt O95747) (O95747 whole entry): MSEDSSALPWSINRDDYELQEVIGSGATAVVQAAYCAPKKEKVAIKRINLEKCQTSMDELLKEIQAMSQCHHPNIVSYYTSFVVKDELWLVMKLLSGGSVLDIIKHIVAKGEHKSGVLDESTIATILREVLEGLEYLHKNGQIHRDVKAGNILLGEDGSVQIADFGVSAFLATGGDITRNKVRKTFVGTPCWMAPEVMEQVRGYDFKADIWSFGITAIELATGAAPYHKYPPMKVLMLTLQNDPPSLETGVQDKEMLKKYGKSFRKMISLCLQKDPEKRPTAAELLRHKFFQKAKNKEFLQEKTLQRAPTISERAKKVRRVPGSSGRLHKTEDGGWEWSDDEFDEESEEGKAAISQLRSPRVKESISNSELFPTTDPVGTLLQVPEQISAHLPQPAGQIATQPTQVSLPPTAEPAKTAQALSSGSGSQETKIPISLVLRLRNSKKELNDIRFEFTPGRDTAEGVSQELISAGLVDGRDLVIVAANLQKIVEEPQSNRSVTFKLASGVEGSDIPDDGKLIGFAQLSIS

Consider `O=C(c1cccc(Cl)c1F)N1CCN(Cc2cccc(Nc3nccs3)n2)CC1` [MK-8745], for which the “% Enzyme Activity (relative to DMSO controls)” value in assay [1] (500 nM) is 103.16%; in assay [2] (500 nM) it was 93.31%; in assay [3] (500 nM) it was 140.35%; in assay [4] (500 nM), 29.01%; in assay [5] (500 nM) it was 96.81%; in assay [6] (500 nM), 75.68%. The “% Enzyme Activity (relative to DMSO controls)” value in assay [7] (500 nM) is listed as 86.46%. Further, the remaining activity at 0.5 µM in assay [1] (500 nM) worked out at 104%; in assay [2] (500 nM, read-out: % Enzyme Activity (relative to DMSO controls)), 93.3%; in assay [3] (500 nM) it was 144%; in assay [4] (500 nM), 29%; in assay [5] (500 nM), 97.1%; in assay [6] (500 nM), 79%. In assay [7] (500 nM), the remaining activity at 0.5 µM stood at 87.5%.
For the compound `CCn1cc(-c2ccnc3[nH]c(-c4cccc(CN(C)C)c4)cc23)c(-c2ccc(NC(=O)N(C)C)cc2)n1` [GSK1070916], the remaining activity at 0.1 µM in assay [1] was determined as 115%; in assay [2] (setting [8]) it was 95%; in assay [3], 141%; in assay [4], 76.6%; in assay [5] it was 106%; in assay [6], 76.8%. Moreover, the remaining activity at 0.1 µM in assay [7] stood at 89.5%.
Regarding `O=C(O)[C@]1(Cc2cccc(Nc3nccs3)n2)CC[C@@H](Oc2cccc(Cl)c2F)CC1` [MK-5108], the remaining activity at 0.1 µM in assay [1] came out at 108%; in assay [2] (setting [8]), 98.9%; in assay [3], 113%; in assay [4], 20.2%; in assay [5], 99.2%; in assay [6] it was 97.1%. For the same compound, the remaining activity at 0.1 µM in assay [7] was 107%. Further, the remaining activity at 0.5 µM in assay [1] (500 nM) was 108%; in assay [3] (500 nM), 134%; in assay [4] (500 nM) it was 3.11%; in assay [5] (500 nM) it was 99.2%; in assay [6] (500 nM), 87.9%; in assay [7] (500 nM), 80.2%.

The record behind these values is article PMC4685510, “A Cell Biologist’s Field Guide to Aurora Kinase Inhibitors” (Frontiers in Oncology, 2015).
